Data taken from patent publication US7488466B2, “Preparation for determining pyrimidine metabolic capacity” (Otsuka Pharmaceutical Co., Ltd., priority 2002, dated 2009).

Experiments:
[1] = molecular target: T1, dihydropyrimidine dehydrogenase (DPD) (Canis lupus familiaris, UniProt A0A8I3P1X8); test: 13CO2 excretion in expired air after intravenous injection of 2-13C-labeled uracil preparation (Example 1); format: in vivo; conditions: FIG. 2
T1 construct: Fasted beagle dogs were used as experimental animals; from tissue; host or cells: whole living beagle dogs (in vivo)
T1 sequence (A0A8I3P1X8 1-1026): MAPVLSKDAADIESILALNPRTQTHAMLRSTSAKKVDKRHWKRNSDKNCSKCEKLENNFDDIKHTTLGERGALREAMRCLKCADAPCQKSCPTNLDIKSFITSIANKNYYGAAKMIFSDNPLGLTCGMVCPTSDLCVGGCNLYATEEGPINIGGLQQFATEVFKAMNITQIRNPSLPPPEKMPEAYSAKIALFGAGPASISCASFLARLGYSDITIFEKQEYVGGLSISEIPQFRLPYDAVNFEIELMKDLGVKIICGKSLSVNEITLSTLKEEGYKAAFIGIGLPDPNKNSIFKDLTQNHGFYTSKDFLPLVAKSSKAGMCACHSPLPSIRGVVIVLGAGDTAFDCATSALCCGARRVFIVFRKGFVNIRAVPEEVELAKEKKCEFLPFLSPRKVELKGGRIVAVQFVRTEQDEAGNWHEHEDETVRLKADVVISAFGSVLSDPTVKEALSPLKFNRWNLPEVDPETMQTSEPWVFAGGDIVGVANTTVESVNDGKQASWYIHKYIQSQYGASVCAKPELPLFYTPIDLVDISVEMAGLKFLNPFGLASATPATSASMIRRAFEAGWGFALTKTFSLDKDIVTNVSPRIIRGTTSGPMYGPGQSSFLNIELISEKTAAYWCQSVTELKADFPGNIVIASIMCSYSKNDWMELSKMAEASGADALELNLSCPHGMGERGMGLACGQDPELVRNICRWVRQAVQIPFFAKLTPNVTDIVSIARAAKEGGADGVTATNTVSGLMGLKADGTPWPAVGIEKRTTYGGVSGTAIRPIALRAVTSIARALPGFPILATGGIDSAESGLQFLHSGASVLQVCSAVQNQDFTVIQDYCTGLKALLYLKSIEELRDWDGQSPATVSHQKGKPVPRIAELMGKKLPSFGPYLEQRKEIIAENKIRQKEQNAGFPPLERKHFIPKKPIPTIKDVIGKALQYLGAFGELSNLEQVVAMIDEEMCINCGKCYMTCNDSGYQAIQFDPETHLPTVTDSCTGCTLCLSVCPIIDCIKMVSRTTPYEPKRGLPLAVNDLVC
Protocol: Uracil having […] carbon at the 2-position (2-^13C-labeled uracil) was used as an isotope-labeled pyrimidine compound. A preparation for determining the pyrimidine metabolic capacity in the form of an intravenous injection comprising the 2-^13C-labeled uracil as an active ingredient was prepared and tested for usefulness for determining pyrimidine metabolic capacity.
Uracil-2-^13C (Cambridge Isotope Laboratory) (300 mg) was dissolved in 24 ml of 0.1N NaOH/saline solution (measured out from 200 ml of 0.1N NaOH/saline solution prepared by diluting 2 ml of 10N sodium hydroxide solution with physiological saline), to give a preparation for determining the pyrimidine metabolic capacity in the form of an intravenous injection (containing 50 mg of uracil-2-^13C per 4 ml of the injection).
(E)-5-(2-bromovinyl)-uracil (250 mg) and gum arabic (2.25 g) were mixed together, and the mixture was kneaded while adding a slight amount of water, to prepare 45 ml of a suspension (containing 83.3 mg of (E)-5-(2-bromovinyl)-uracil per 15 ml of the suspension).
Fasted beagle dogs were used as experimental animals. […] The concentration of ^13C-labeled carbon dioxide excreted in the collected expired air was measured using a GC-MS analyzer (ABCA-G, Europa Scientific). […]

[2] = Dose dependence of 13CO2 concentration in expired air after oral 2-13C-labeled uracil (Example 3); format: in vivo, beagle dogs; conditions: dose of 10 to 80 μmol/kg body weight, FIGS. 5 and 6
Protocol: In 50 ml portions of 0.05N sodium hydroxide, 56.5 mg, 113.1 mg, 226.2 mg, and 452.3 mg of 2-^13C-labeled uracil (Cambridge Isotope Laboratory) were dissolved separately, to prepare solutions with concentrations of 10 μmol/ml, 20 μmol/ml, 40 μmol/ml, and 80 μmol/ml, respectively. The solutions were forcibly administered orally to fasted male beagle dogs (n=3) using oral tubes for dogs, in an amount of 1 ml/kg body weight (dose: […]), and thereafter water was forcibly administered orally in an amount of 2 ml/kg body weight. The expired air was collected before administration, and after 15, 30, 45, 60, 75, 90, 105, 120, 135, 150, 180, 210, and 240 minutes after administration. Then, the ^13C-labeled carbon dioxide concentration in the expired air was measured, and pharmacokinetic parameters (the area under the curve (AUC) and maximum ^13C-labled carbon dioxide concentration (Cmax)) were calculated from the obtained transition curve of the ^13C-labeled carbon dioxide concentration in the expired air.

[3] = molecular target: T1, dihydropyrimidine dehydrogenase (DPD); test: 13CO2 excretion in expired air after oral administration of 2-13C-labeled uracil preparation (Example 2); format: in vivo; conditions: FIG. 3
Protocol: A preparation for determining the pyrimidine metabolic capacity in an oral form was prepared using the same 2-^13C-labeled uracil as used in Example 1 as an active ingredient, and tested for usefulness for measuring pyrimidine metabolic capacity.
2-^13C-labeled uracil (Cambridge Isotope Laboratory) (300 mg) was dissolved in 24 ml of 0.1N NaOH/saline solution (measured out from 200 ml of 0.1N NaOH/saline solution prepared by diluting 2 ml of 10N sodium hydroxide solution with physiological saline). Then, water was added to give 60 ml of a preparation for determining pyrimidine metabolic capacity in the form of an oral solution (containing 50 mg of 2-^13C-labeled uracil per 10 ml of the oral solution).
Fasted beagle dogs were used as experimental animals. In Group 1 (n=3), the preparation prepared above in (1) was orally administered (50 mg/10 ml/body) (test group). […] The concentration of ^13C-labeled carbon dioxide excreted in the expired air was measured in the same manner as in Example 1, using a GC-MS analyzer (ABCA-G, Europa Scientific). […]

[4] = tested on: pyrimidine metabolic pathway; conditions: administered to the body; Cancer (Phila), 68, 499-501, 1991; cited from earlier work
[5] = tested on: dihydropyrimidine dehydrogenase (DPD); conditions: Cancer Research 46, 1094-1101, 1986; cited from earlier work

O=c1cc[nH][13c](=O)[nH]1 [2-^13C-labeled uracil]
metabolism and excretion in the expired air as 13CO2 ([1]; test group, fasted beagle dogs, intravenous injection 50 mg/body, expired air 0-240 min): metabolized and excreted in the expired air as ^13CO2
excretion kinetics in the expired air (AUC and Cmax versus dose) [2]: has linearity
metabolism and excretion in the expired air as 13CO2 ([3]; test group, fasted beagle dogs, oral 50 mg/10 ml/body, expired air 0-240 min): metabolized and excreted in the expired air as ^13CO2

O=c1[nH]cc(F)c(=O)[nH]1 [5-FU, 5-fluorouracil]
share of administered 5-FU degraded in the pyrimidine metabolic pathway [4]: about 80%

O=c1[nH]cc(/C=C/Br)c(=O)[nH]1 [(E)-5-(2-bromovinyl)-uracil]
excretion of 13CO2 in the expired air after DPD inhibitor pretreatment ([1]; DPD inhibitor 83.3 mg/body orally 1 hour before intravenous 2-13C-labeled uracil 50 mg/body, compared with test group): markedly lower excretion
DPD inhibitor activity [5]: known as a dihydropyrimidine dehydrogenase (DPD) inhibitor
excretion of 13CO2 in the expired air after DPD inhibitor pretreatment ([3]; DPD inhibitor 83.3 mg/15 ml/body orally 1 hour before oral 2-13C-labeled uracil 50 mg/10 ml/body, compared with test group): markedly reduced
